Tests used:
B-Raf = B-Raf (Homo sapiens, UniProt P15056); assay: B-Raf kinase activity assay; type: biochemical; conditions: under the test conditions employed; read-out: IC50 toward kinase B-Raf
B-Raf V600E = B-Raf V600E (Homo sapiens, UniProt P15056, V600E); assay: B-Raf V600E kinase activity assay; type: biochemical; conditions: under the test conditions employed; read-out: IC50 toward kinase B-Raf V600E
c-Raf-1 = c-Raf-1 (Homo sapiens, UniProt P04049); assay: c-Raf-1 kinase activity assay; type: biochemical; conditions: under the test conditions employed; read-out: IC50 toward kinase c-Raf-1
Flt1 = Flt1 (Homo sapiens, UniProt P17948); assay: Flt1 kinase activity assay; type: biochemical; conditions: under the test conditions employed; read-out: IC50 toward kinase Flt1
Fms = target: T1, Fms (Homo sapiens, UniProt P07333); assay: Fms biochemical assay (AlphaScreen or 33P-ATP); conditions: under the test conditions employed; read-out: IC50 toward kinase Fms
T1 construct: purchased Upstate Biotech 14-551
Excerpt: Each sample was at 5% DMSO.

Kdr = Kdr (Homo sapiens, UniProt P35968); assay: Kdr kinase activity assay; type: biochemical; conditions: under the test conditions employed; read-out: IC50 toward kinase Kdr
Kit = target: T2, Kit (Homo sapiens, UniProt P10721); assay: c-kit biochemical assay (AlphaScreen or 33P-ATP); conditions: under the test conditions employed; read-out: IC50 toward kinase Kit
T2 construct: P1332.N6 BI PTP KIT M552-K948-X COD; made in house; host or cells: E. coli BL21(DE3)RIL, co-expressed with PTP1B
Summary of the method: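 Kinase activity read by AlphaScreen or 33P-ATP incorporation, with c-kit enzyme at 1 ng per sample. The enzyme was either commercial or a recombinant human kit construct made from a gene-synthesized coding sequence.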

TrkA = target: T3, TrkA (Homo sapiens, UniProt P04629); assay: TrkA biochemical assay (AlphaScreen); conditions: under the test conditions employed; read-out: IC50 toward kinase TrkA
T3 construct: purchased Upstate Biotech 14-571
Protocol: Compounds tested were dissolved in DMSO (1 μL) and added to a white 384-well plate (Costar #3705). […] Each sample was at 5% DMSO. The plate was then incubated for 40 minutes at room temperature.

HGK = HGK (Homo sapiens, UniProt O95819); assay: HGK (MAP4K4) biochemical assay (AlphaScreen); conditions: under the test conditions employed; read-out: IC50 toward kinase HGK
Summary of the method: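 AlphaScreen kinase assay with 0.5 ng MAP4K4 per sample and 10 nM biotin-ERM substrate, reacted 40 min at room temperature. Stopped with EDTA buffer containing phospho-ERM antibody (1:1000) plus donor and protein A acceptor beads (1 μg/ml final); signal tracks substrate phosphorylation.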

Fak = Fak (Homo sapiens, UniProt Q05397); assay: Fak kinase activity assay; type: biochemical; conditions: under the test conditions employed; read-out: IC50 toward kinase Fak
Btk = Btk (Homo sapiens, UniProt Q06187); assay: Btk kinase activity assay; type: biochemical; conditions: under the test conditions employed; read-out: IC50 toward kinase Btk
Src = Src (Homo sapiens, UniProt P12931); assay: Src kinase activity assay; type: biochemical; conditions: under the test conditions employed; read-out: IC50 toward kinase Src
FGFR = FGFR (Homo sapiens, UniProt P11362); assay: FGFR kinase activity assay; type: biochemical; conditions: under the test conditions employed; read-out: IC50 toward kinase FGFR

Measured: IC50

HGK, sequence (O95819 whole entry): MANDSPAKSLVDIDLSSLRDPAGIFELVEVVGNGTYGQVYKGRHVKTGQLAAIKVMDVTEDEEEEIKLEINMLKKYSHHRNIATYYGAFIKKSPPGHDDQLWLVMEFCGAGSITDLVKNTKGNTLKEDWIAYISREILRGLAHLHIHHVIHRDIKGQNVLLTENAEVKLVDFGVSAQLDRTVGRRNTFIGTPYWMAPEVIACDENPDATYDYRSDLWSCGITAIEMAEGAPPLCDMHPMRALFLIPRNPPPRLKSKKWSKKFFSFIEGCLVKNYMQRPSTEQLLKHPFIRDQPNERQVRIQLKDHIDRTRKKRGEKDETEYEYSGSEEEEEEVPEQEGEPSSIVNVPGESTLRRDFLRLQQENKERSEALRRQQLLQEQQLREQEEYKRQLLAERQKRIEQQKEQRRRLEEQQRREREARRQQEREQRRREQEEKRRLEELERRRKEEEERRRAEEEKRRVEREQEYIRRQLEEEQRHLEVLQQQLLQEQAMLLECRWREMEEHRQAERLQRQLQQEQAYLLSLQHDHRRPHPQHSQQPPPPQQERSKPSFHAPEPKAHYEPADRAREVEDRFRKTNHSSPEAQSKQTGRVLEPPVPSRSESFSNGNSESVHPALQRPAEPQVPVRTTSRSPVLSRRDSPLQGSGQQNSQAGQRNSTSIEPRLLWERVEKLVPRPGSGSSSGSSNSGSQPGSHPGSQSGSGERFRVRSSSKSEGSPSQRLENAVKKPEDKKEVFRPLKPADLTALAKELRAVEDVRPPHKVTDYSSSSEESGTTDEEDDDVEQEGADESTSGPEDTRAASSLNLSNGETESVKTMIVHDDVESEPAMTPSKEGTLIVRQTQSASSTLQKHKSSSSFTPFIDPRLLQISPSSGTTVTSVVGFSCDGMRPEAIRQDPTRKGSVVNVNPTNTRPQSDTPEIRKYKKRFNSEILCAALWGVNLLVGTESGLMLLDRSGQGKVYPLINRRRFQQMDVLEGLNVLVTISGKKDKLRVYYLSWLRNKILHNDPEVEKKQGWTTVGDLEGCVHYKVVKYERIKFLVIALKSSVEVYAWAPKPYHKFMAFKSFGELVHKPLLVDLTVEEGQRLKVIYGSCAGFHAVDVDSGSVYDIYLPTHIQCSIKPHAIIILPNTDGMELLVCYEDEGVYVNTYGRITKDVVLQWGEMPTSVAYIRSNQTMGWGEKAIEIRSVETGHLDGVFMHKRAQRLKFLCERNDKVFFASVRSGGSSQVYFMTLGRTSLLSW
Btk, sequence (Q06187 whole entry): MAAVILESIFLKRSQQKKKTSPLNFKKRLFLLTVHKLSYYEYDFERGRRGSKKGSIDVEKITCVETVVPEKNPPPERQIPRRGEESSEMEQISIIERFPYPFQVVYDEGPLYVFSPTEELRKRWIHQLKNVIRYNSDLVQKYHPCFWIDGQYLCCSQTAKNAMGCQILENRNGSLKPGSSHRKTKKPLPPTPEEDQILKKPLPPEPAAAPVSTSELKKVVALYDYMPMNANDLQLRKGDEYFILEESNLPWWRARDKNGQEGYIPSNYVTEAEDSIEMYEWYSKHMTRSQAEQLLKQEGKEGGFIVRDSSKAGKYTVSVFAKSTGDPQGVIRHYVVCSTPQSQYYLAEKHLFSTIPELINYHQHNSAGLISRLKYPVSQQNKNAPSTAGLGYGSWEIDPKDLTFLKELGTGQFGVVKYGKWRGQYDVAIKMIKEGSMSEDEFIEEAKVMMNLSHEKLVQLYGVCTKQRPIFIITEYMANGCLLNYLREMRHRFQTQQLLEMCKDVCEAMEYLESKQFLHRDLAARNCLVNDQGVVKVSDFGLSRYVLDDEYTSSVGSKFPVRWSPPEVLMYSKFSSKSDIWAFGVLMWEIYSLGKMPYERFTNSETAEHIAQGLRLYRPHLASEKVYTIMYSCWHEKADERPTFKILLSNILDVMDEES
B-Raf V600E, sequence (P15056 whole entry V600E): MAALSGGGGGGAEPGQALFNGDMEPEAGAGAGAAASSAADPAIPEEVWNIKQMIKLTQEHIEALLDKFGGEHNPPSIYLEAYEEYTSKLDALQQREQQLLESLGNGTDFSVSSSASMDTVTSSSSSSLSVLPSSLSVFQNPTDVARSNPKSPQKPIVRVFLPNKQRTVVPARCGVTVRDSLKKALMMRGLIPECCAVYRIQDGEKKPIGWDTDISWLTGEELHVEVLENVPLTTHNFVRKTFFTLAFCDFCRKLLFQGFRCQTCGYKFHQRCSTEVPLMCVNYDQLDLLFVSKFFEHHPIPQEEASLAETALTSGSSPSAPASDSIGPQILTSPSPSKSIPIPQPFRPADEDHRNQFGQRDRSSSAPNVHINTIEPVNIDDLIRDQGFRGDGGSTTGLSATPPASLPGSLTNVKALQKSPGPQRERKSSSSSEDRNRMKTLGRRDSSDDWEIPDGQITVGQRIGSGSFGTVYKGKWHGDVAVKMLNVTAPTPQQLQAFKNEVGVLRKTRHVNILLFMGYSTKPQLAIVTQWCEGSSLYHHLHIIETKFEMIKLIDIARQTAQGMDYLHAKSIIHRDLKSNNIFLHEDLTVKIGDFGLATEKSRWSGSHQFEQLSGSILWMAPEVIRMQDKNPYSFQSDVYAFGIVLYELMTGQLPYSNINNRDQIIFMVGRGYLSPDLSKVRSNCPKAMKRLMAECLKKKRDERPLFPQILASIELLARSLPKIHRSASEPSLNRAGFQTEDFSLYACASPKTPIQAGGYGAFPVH
FGFR, sequence (P11362 22-822): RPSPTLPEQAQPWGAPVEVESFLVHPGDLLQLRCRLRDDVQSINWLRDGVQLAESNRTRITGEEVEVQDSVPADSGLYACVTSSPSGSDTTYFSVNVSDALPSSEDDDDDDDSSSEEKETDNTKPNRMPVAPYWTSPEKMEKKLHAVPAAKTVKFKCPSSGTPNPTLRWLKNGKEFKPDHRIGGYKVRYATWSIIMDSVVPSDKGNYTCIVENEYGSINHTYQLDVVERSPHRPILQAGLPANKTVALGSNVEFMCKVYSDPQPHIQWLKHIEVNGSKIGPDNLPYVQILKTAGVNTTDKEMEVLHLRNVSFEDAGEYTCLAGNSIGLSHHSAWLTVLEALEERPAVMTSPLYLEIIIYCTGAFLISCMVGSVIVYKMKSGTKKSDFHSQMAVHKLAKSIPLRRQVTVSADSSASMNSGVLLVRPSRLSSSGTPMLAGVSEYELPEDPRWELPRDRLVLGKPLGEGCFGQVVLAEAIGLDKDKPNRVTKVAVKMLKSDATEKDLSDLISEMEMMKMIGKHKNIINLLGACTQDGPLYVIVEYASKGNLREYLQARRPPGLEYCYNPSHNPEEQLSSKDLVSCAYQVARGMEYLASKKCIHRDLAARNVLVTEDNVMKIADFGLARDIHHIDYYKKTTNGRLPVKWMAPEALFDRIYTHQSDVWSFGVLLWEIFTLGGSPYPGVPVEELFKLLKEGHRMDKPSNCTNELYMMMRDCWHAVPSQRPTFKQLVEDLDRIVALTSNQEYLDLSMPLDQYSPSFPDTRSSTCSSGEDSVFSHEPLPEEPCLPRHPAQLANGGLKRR
Flt1, sequence (P17948 27-1338): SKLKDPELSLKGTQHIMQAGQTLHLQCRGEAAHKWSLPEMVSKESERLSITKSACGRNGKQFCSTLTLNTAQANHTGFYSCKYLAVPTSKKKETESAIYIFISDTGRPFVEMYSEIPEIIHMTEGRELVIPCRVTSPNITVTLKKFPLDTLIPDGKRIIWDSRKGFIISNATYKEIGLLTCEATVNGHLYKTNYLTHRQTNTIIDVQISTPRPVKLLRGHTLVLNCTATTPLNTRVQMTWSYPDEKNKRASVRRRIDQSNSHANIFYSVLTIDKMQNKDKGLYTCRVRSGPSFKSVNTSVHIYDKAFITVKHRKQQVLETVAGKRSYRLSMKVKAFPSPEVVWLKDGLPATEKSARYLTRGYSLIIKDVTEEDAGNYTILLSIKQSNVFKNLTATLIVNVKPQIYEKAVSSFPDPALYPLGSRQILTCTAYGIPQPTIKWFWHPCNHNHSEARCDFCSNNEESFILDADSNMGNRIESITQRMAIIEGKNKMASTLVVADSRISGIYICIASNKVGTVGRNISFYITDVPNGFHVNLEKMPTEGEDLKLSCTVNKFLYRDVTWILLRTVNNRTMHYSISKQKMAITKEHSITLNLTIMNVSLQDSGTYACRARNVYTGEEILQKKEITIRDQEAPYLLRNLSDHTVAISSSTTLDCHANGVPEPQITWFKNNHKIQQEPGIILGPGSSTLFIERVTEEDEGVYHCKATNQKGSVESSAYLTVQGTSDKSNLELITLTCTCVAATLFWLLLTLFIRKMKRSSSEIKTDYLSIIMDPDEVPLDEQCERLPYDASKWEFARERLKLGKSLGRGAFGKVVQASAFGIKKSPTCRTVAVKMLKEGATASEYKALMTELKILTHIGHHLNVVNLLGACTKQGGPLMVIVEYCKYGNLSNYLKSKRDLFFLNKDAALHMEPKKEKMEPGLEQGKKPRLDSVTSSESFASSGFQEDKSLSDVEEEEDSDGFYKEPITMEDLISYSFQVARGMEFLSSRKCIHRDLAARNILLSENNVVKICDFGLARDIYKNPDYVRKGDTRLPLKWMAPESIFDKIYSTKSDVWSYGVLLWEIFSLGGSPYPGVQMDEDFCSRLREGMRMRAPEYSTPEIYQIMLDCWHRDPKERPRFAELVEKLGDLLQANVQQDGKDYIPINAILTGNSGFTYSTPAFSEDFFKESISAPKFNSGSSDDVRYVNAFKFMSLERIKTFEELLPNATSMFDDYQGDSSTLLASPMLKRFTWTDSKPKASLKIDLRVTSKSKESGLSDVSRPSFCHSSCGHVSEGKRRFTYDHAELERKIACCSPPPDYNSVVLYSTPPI
B-Raf, sequence (P15056 whole entry): as the sequence (P15056 whole entry V600E) above, with E600V counted along it

N#Cc1cnc2[nH]cc(Cc3cc(F)c(OCc4nc5ccccc5[nH]4)cc3F)c2c1 [P-2185, 3-[4-(1H-Benzoimidazol-2-ylmethoxy)-2,5-difluoro-benzyl]-1H-pyrrolo[2,3-b]pyridine-5-carbonitrile]
not listed: Fak | Btk | Src | FGFR
≤ 10 µM: all other assays above

COc1cc(OCc2ccc(Cl)cc2)ccc1Cc1c[nH]c2ncccc12 [P-1450, 3-[4-(4-chloro-benzyloxy)-2-methoxy-benzyl]-1H-pyrrolo[2,3-b]pyridine]
≤ 10 µM: B-Raf V600E | Fak | Fms | Kit

O=C(c1c(F)ccc(OCc2ccc(C(F)(F)F)nc2)c1F)c1c[nH]c2ncc(Cl)cc12 [P-2163, (5-Chloro-1H-pyrrolo[2,3-b]pyridin-3-yl)-[2,6-difluoro-3-(6-trifluoromethyl-pyridin-3-ylmethoxy)-phenyl]-methanone]
≤ 10 µM: Btk | Fms | Kdr | Kit

Cc1nc(C)c(COc2ccc(F)c(C(=O)c3c[nH]c4ncc(Cl)cc34)c2F)s1 [P-2162, (5-Chloro-1H-pyrrolo[2,3-b]pyridin-3-yl)-[3-(2,4-dimethyl-thiazol-5-ylmethoxy)-2,6-difluoro-phenyl]-methanone]
≤ 10 µM: Btk | Fms | Kdr | Kit

Cn1cc(-c2cnc3[nH]cc(Cc4cc(F)c(OCc5nc6ccccc6[nH]5)cc4Cl)c3c2)cn1 [P-2109, 2-{5-Chloro-2-fluoro-4-[5-(1-methyl-1H-pyrazol-4-yl)-1H-pyrrolo[2,3-b]pyridin-3-ylmethyl]-phenoxymethyl}-1H-benzoimidazole]
≤ 10 µM: Flt1 | Fms | Kdr | Kit | Src | TrkA | HGK

COCCOc1ccc(F)c(Cc2c[nH]c3ncc(Br)cc23)c1F [P-1454, 5-Bromo-3-[2,6-difluoro-3-(2-methoxy-ethoxy)-benzyl]1H-pyrrolo[2,3-b]pyridine]
≤ 10 µM: B-Raf | B-Raf V600E | c-Raf-1 | FGFR | Fms | Kit

Fc1ccc(OCc2ccccc2)c(F)c1Cc1c[nH]c2ncc(-c3cccnc3)cc12 [P-1455, 3-(3-Benzyloxy-2,6-difluoro-benzyl)-5-pyridin-3-yl-1H-pyrrolo[2,3-b]pyridine]
≤ 10 µM: B-Raf | B-Raf V600E | c-Raf-1 | Fak | FGFR | Fms | Kit

Cn1cc(-c2cnc3[nH]cc(Cc4cc(F)c(OCc5nc6ccccc6[nH]5)cc4F)c3c2)cn1 [P-2108, 2-{2,5-Difluoro-4-[5-(1-methyl-1H-pyrazol-4-yl)-1H-pyrrolo[2,3-b]pyridin-3-ylmethyl]-phenoxymethyl}-1H-benzoimidazole]
≤ 10 µM: Flt1 | Fms | Kdr | Kit | Src | TrkA

Cn1cc(-c2cnc3[nH]cc(Cc4cc(Cl)c(OCc5nc6ccccc6[nH]5)cc4F)c3c2)cn1 [P-2117, 2-{2-Chloro-5-fluoro-4-[5-(1-methyl-1H-pyrazol-4-yl)-1H-pyrrolo[2,3-b]pyridin-3-ylmethyl]-phenoxymethyl}-1H-benzoimidazole]
≤ 10 µM: Flt1 | Fms | Kdr | Kit | Src | TrkA

COCCOc1ccc(F)c(C(=O)c2c[nH]c3ncc(Br)cc23)c1F [P-1453, (5-Bromo-1H-pyrrolo[2,3-b]pyridin-3-yl)-[2,6-difluoro-3-(2-methoxy-ethoxy)-phenyl]-methanone]
≤ 10 µM: B-Raf | B-Raf V600E | c-Raf-1 | Fak | FGFR | Fms | Kit

CCOc1c(OCc2ccc(N3CCCC3)nc2)cccc1C(=O)c1c[nH]c2ncccc12 [P-2144, [2-Ethoxy-3-(6-pyrrolidin-1-yl-pyridin-3-ylmethoxy)-phenyl]-(1H-pyrrolo[2,3-b]pyridin-3-yl)-methanone]
≤ 10 µM: B-Raf | Btk | Fms

Clc1ccc(COc2ccc(Cc3c[nH]c4ncccc34)cc2Cl)cc1 [P-1449, 3-[3-chloro-4-(4-chloro-benzyloxy)-benzyl]-1H-pyrrolo[2,3-b]pyridine]
≤ 10 µM: B-Raf V600E | Fak | Fms | Kit

COCCOCCOc1cc(Cl)c(Cc2c[nH]c3ncc(Cl)cc23)cc1F [P-2155, 5-chloro-3-2-chloro-5-fluoro-4-[2-(2-methoxy-ethoxy)-ethoxy]-benzyl-1H-pyrrolo[2,3-b]pyridine]
≤ 10 µM: c-Raf-1 | FGFR | Fms | Kdr

Fc1cc(OCc2nc3ccccc3[nH]2)c(F)cc1Cc1c[nH]c2ncc(Br)cc12 [P-2107, 2-[4-(5-Bromo-1H-pyrrolo[2,3-b]pyridin-3-ylmethyl)-2,5-difluoro-phenoxymethyl]-1H-benzoimidazole]
≤ 10 µM: c-Raf-1 | Flt1 | Fms | Kdr | Kit | TrkA | HGK

Cn1cc(-c2cnc3[nH]cc(Cc4cc(F)c(O)cc4F)c3c2)cn1 [P-2161, 2,5-difluoro-4-[5-(1-methyl-1H-pyrazol-4-yl)-1H-pyrrolo[2,3-b]pyridin-3-ylmethyl]-phenol]
≤ 10 µM: Btk | Flt1 | Fms | Kdr | Kit

Cc1nc(COc2ccc(F)c(C(=O)c3c[nH]c4ncc(Cl)cc34)c2F)c(C)o1 [P-2164, (5-Chloro-1H-pyrrolo[2,3-b]pyridin-3-yl)-[3-(2,5-dimethyl-oxazol-4-ylmethoxy)-2,6-difluoro-phenyl]-methanone]
≤ 10 µM: B-Raf | B-Raf V600E | Btk | Flt1 | Fms | Kdr | Kit

CCOc1c(OCc2ccc(N(CC)CC)nc2)cccc1C(=O)c1c[nH]c2ncccc12 [P-2143, [3-(6-Diethylamino-pyridin-3-ylmethoxy)-2-ethoxy-phenyl]-(1H-pyrrolo[2,3-b]pyridin-3-yl)-methanone]
≤ 10 µM: Btk | c-Raf-1 | Fms

COc1cc(Cc2c[nH]c3ncc(Br)cc23)c(F)cc1OCc1nc2ccccc2[nH]1 [P-2181, 2-[4-(5-Bromo-1H-pyrrolo[2,3-b]pyridin-3-ylmethyl)-5-fluoro-2-methoxy-phenoxymethyl]-1H-benzoimidazole]
≤ 10 µM: Fak | Fms | TrkA | HGK
